Assays:
TrkA = molecular target: T1, TrkA (Homo sapiens, UniProt P04629); test: cell-based Enzyme Fragment Complementation (EFC) assay, U2OS cells over-expressing TrkA; details: compound pre-mixed with ligand (NGF), final ligand concentration 10 ng/mL, 3 hours at room temperature, read-out: TrkA potency expressed as EC50
T1 construct: expressed in transfected cells; host or cells: U2OS
Source text: (§1) A high throughput cell-based screen has been used to identify positive modulators of TrkA and TrkB. The screen involves the use of cell-based assay overexpressing TrkA or TrkB. The purpose of the assay is to identify compounds that modulate neurotrophin signalling (Forsell et al 2012). The assay can be used in inhibitor mode using a high concentration of ligand, in modulator mode using an intermediate concentration and in agonist mode using a low concentration of ligand.
(§2) The assay uses Enzyme Fragment Complementation (EFC) technique, which is a proximity-based assay. Briefly, cells used in this assay over-express two fusion proteins, i.e. the receptor, which can be either of TrkA or TrkB, fused to a small peptide of beta-galactosidase and an adaptor protein, i.e. SHC1 (or any other Trk-adaptor protein) fused to the major part of beta-galactosidase. […] The proximity between the small activating peptide on the receptor and the major part of beta-galactosidase on the adaptor protein leads to an active beta-galactosidase enzyme. The activation of the receptor is quantified by measuring the amount of active beta-galactosidase by its conversion of a non-luminescent substrate into a luminescent product.
(§3) U2OS-cells, over-expressing TrkA or TrkB, are plated in 96- or 384-well plates and incubated overnight. On the following day, test compound was pre-mixed with ligand (NGF) and the ligand-compound mixture is then added to the cells to yield a final ligand concentration of 10 ng/mL. After 3 hours of incubation at room temperature, the incubation is stopped by the addition of a beta-galactosidase substrate mixture containing detergents. The substrate mixture is incubated for 60 minutes at ambient temperature. The luminescence is thereafter read by the use of a plate reader.

TrkB = molecular target: T2, TrkB (Homo sapiens, UniProt Q16620); test: cell-based Enzyme Fragment Complementation (EFC) assay, U2OS cells over-expressing TrkB; details: compound pre-mixed with ligand (NGF), final ligand concentration 10 ng/mL, 3 hours at room temperature, read-out: TrkB potency expressed as EC50
T2 construct: expressed in transfected cells; host or cells: U2OS
Source text: as §1, §2, §3

[1] = test system: ephrin type-B receptor 2 (EphB2); details: Suzuki et al., FEBS Open Bio 2016; cited from earlier work

T1 sequence (P04629 33-796): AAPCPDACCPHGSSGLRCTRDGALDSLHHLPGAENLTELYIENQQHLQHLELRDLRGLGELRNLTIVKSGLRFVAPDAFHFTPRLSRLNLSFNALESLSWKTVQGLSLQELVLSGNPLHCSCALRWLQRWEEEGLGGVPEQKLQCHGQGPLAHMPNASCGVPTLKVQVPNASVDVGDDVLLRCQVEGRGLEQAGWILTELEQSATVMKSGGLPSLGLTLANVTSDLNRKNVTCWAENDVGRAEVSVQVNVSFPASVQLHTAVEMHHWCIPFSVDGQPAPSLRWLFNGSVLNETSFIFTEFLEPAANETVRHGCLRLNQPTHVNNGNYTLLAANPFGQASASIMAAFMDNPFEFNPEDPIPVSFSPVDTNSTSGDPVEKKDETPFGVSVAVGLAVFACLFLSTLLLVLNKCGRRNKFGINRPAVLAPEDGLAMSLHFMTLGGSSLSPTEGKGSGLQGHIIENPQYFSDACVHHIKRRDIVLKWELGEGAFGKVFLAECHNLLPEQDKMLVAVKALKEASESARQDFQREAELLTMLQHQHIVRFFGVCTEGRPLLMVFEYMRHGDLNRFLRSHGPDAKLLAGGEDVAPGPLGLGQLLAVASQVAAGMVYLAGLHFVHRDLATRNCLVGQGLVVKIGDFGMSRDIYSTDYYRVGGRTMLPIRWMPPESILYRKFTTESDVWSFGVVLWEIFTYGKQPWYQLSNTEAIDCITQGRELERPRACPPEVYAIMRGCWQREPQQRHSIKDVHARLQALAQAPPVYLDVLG
T2 sequence (Q16620 32-822): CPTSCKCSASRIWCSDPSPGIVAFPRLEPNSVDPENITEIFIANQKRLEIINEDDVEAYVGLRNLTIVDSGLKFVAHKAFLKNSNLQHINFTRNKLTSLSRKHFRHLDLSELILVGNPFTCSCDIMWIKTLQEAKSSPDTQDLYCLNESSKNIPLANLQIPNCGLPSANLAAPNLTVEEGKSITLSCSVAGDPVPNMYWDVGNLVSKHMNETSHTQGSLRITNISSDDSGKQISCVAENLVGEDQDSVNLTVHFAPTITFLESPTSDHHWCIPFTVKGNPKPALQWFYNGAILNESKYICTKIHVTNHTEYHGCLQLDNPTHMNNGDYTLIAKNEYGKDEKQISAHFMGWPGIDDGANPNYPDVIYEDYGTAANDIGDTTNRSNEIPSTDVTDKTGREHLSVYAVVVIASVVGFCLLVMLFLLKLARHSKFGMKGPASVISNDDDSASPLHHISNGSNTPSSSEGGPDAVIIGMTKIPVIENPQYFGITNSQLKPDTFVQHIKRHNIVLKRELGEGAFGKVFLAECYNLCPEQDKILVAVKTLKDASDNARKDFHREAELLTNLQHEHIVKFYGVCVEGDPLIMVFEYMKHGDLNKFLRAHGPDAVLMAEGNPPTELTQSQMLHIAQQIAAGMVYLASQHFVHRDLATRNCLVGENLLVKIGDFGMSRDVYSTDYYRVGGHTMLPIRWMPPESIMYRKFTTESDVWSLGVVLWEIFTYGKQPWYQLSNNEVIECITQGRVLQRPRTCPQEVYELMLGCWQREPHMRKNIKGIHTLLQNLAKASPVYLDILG

SMILES | EC50 (TrkA) [µM] | EC50 (TrkB) [µM] | inhibits the binding of p-amyloid oligomers to ephrin type-B receptor 2 (EphB2) [1] [%]
Cc1cc(-n2c(=O)[nH]c(=O)n(-c3ccccc3)c2=O)ccc1N1CCCCC1 [Example 2, 1-[3-methyl-4-(piperidin-1-yl)phenyl]-3-phenyl-1,3,5-triazinane-2,4,6-trione] | 1.05 | 1.27 | –
Cc1cc(-n2c(=O)[nH]c(=O)n(C)c2=O)ccc1Oc1ccc(SC(F)(F)F)cc1 [toltrazuril, 1-methyl-3-(3-methyl-4-{4-[(trifluoromethyl)sulfanyl]phenoxy}phenyl)-1,3,5-triazinane-2,4,6-trione] | – | – | 30
Cc1cc(-n2c(=O)[nH]c(=O)n(-c3ccccc3)c2=O)ccc1-c1ccccc1 [Example 1, 1-{2-methyl-[1,1′-biphenyl]-4-yl}-3-phenyl-1,3,5-triazinane-2,4,6-trione] | 0.18 | 0.09 | –
Cc1cc(-n2c(=O)[nH]c(=O)n(-c3ccccc3)c2=O)ccc1C(C)C [Example 3, 1-[3-methyl-4-(propan-2-yl)phenyl]-3-phenyl-1,3,5-triazinane-2,4,6-trione] | 7.05 | 7.9 | –

Second part, led by results:

EC50 (TrkA) [µM] | EC50 (TrkB) [µM] | SMILES | inhibits the binding of p-amyloid oligomers to ephrin type-B receptor 2 (EphB2) [1] [%]
7.2 | 3 | CCc1ccc(-c2ccc(-n3c(=O)[nH]c(=O)n(C)c3=O)cc2C)cc1 [Example 5, 1-{4′-ethyl-2-methyl-[1,1′-biphenyl]-4-yl}-3-methyl-1,3,5-triazinane-2,4,6-trione] | –
5.56 | 6.22 | Cc1cc(-n2c(=O)[nH]c(=O)n(-c3ccccc3)c2=O)ccc1-n1cccn1 [Example 8, 1-[3-methyl-4-(1H-pyrazol-1-yl)phenyl]-3-phenyl-1,3,5-triazinane-2,4,6-trione] | –
0.1 | 0.07 | Cc1cccc(-n2c(=O)[nH]c(=O)n(-c3ccc(-n4cccc4)c(C)c3)c2=O)c1 [Example 11, 1-[3-methyl-4-(1H-pyrrol-1-yl)phenyl]-3-(3-methylphenyl)-1,3,5-triazinane-2,4,6-trione] | –
6.77 | 2.08 | Cc1ccc(-c2ccc(-n3c(=O)[nH]c(=O)n(-c4ccccc4)c3=O)cc2C)o1 [Example 4, 1-[3-methyl-4-(5-methylfuran-2-yl)phenyl]-3-phenyl-1,3,5-triazinane-2,4,6-trione] | –
0.24 | 0.25 | Cc1cc(-n2c(=O)[nH]c(=O)n(-c3ccccc3)c2=O)ccc1-n1cccc1 [Example 6, 1-[3-methyl-4-(1H-pyrrol-1-yl)phenyl]-3-phenyl-1,3,5-triazinane-2,4,6-trione] | –
6.71 | 20.6 | Cc1cc(-n2c(=O)[nH]c(=O)n(C)c2=O)ccc1-c1ccccc1 [Example 7, 1-methyl-3-{2-methyl-[1,1′-biphenyl]-4-yl}-1,3,5-triazinane-2,4,6-trione] | –

Reference: patent US20210261513A1, “4-SUBSTITUTED PHENYL-1,3,5-TRIAZINE DERIVATIVES AS MODULATORS OF TRK RECEPTORS” (ALZECURE PHARMA AB, priority 2018, published 2021)
